According to PubChem BioAssay AID256 (DTP/NCI, 2004):
“And” between values parts separate entries of the source, which are not always exact repeats. Identical values can stand only once. Inconclusive results and toxic doses are left out. The calls were made as follows: active = survival T/C of 150% or more; inactive = T/C below 125% in these data.

System: CD2F1 mice, L1210 leukemia ip, survival T/C
Experiment: NCI In Vivo Anticancer Drug Screen. Data for tumor model L1210 Leukemia (intraperitoneal) in CD2F1 (CDF1) mice
Details: higher = longer survival
Procedure, shortened: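 Antitumor effect is scored in animals hosting a serially transplanted tumor. Values compare compound-dosed animals against vehicle-only controls as a simple quotient.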

[1] = endpoint: mean survival time, dose: 100.0 mg/kg/injection, schedule: Q01DX009 (ip), vehicle: saline with Tween-80
[2] = endpoint: mean survival time, dose: 100.0 mg/kg/injection, schedule: Q04DX003 (ip), vehicle: saline with Tween-80
[3] = endpoint: mean survival time, dose: 200.0 mg/kg/injection, schedule: Q01DX009 (ip), vehicle: saline with Tween-80
[4] = endpoint: mean survival time, dose: 200.0 mg/kg/injection, schedule: Q04DX003 (ip), vehicle: saline with Tween-80
[5] = endpoint: mean survival time, dose: 400.0 mg/kg/injection, schedule: Q01DX009 (ip), vehicle: saline with Tween-80
[6] = endpoint: mean survival time, dose: 400.0 mg/kg/injection, schedule: Q04DX003 (ip), vehicle: saline with Tween-80

Measured: T/C

CC1OC(n2ccc(=O)[nH]c2=O)C2OC(C)(C)OC2C1=O (configuration not stated)
inactive: endpoint: median survival time, dose: 12.5 mg/kg/injection, schedule: Q01DX005 (ip), vehicle: saline with Tween-80 109 % of control | endpoint: median survival time, dose: 25.0 mg/kg/injection, schedule: Q01DX005 (ip), vehicle: saline with Tween-80 97 % of control | endpoint: median survival time, dose: 50.0 mg/kg/injection, schedule: Q01DX005 (ip), vehicle: saline with Tween-80 97 % of control | endpoint: median survival time, dose: 100.0 mg/kg/injection, schedule: Q01DX005 (ip), vehicle: saline with Tween-80 101 % of control | endpoint: median survival time, dose: 200.0 mg/kg/injection, schedule: Q01DX005 (ip), vehicle: saline with Tween-80 101 % of control

CC1C2CC3C(OC(=O)C13)C2I (configuration not stated)
inactive: [1] 95 % of control | [2] 95 % of control | [3] 86 % of control | [4] 89 % of control | [5] 92 % of control | [6] 87 % of control

Nc1ncnc2c1nc(N1CCCCC1)n2C1OC(CO)C(O)C1O (configuration not stated)
inactive: endpoint: mean survival time, dose: 12.5 mg/kg/injection, schedule: Q01DX005 (ip), vehicle: distilled water + Tween-80 92 % of control and 98 % of control | endpoint: mean survival time, dose: 25.0 mg/kg/injection, schedule: Q01DX005 (ip), vehicle: distilled water + Tween-80 103 % of control and 97 % of control | endpoint: mean survival time, dose: 50.0 mg/kg/injection, schedule: Q01DX005 (ip), vehicle: distilled water + Tween-80 99 % of control and 98 % of control | endpoint: mean survival time, dose: 100.0 mg/kg/injection, schedule: Q01DX005 (ip), vehicle: distilled water + Tween-80 101 % of control and 100 % of control | endpoint: mean survival time, dose: 200.0 mg/kg/injection, schedule: Q01DX005 (ip), vehicle: distilled water + Tween-80 97 % of control and 100 % of control

COc1ccc([Si](F)(c2ccc(OC)cc2)c2ccc(OC)cc2)cc1
inactive: [1] 100 % of control | [2] 95 % of control | [3] 94 % of control | [4] 93 % of control | [5] 93 % of control | [6] 90 % of control

C[C@H](CCC[C@H](C)OS(=O)(=O)c1ccccc1)OS(=O)(=O)c1ccccc1
inactive: endpoint: mean survival time, dose: 12.5 mg/kg/injection, schedule: Q01DX009 (ip), vehicle: saline with Tween-80 101 % of control and 110 % of control | [5] 114 % of control and 104 % of control

NC(=S)N/N=C/c1ccccc1N
inactive: endpoint: mean survival time, dose: 100.0 mg/kg/injection, schedule: Q04DX003 (ip), vehicle: acetone 103 % of control | endpoint: mean survival time, dose: 200.0 mg/kg/injection, schedule: Q04DX003 (ip), vehicle: acetone 97 % of control | endpoint: mean survival time, dose: 400.0 mg/kg/injection, schedule: Q04DX003 (ip), vehicle: acetone 104 % of control

COC(=O)C(C)S(=O)(=O)O (configuration not stated)
inactive: endpoint: mean survival time, dose: 100.0 mg/kg/injection, schedule: Q04DX002 (ip), vehicle: saline 106 % of control | endpoint: mean survival time, dose: 200.0 mg/kg/injection, schedule: Q04DX002 (ip), vehicle: saline 106 % of control | endpoint: mean survival time, dose: 400.0 mg/kg/injection, schedule: Q04DX002 (ip), vehicle: saline 95 % of control

O=C1c2ccccc2C(=O)c2c(O)ccc(O)c21
inactive: endpoint: mean survival time, dose: 50.0 mg/kg/injection, schedule: Q01DX009 (ip), vehicle: saline 106 % of control | endpoint: mean survival time, dose: 100.0 mg/kg/injection, schedule: Q01DX001 (ip), vehicle: saline with Tween-80 88 % of control | endpoint: mean survival time, dose: 100.0 mg/kg/injection, schedule: Q01DX009 (ip), vehicle: saline 97 % of control | [2] 94 % of control | endpoint: mean survival time, dose: 200.0 mg/kg/injection, schedule: Q01DX001 (ip), vehicle: saline with Tween-80 91 % of control | endpoint: mean survival time, dose: 200.0 mg/kg/injection, schedule: Q01DX009 (ip), vehicle: saline 109 % of control | [4] 102 % of control | endpoint: mean survival time, dose: 400.0 mg/kg/injection, schedule: Q01DX001 (ip), vehicle: saline with Tween-80 86 % of control | [6] 103 % of control

O=c1c(F)cn(-c2ccco2)c(=O)n1-c1ccco1
inactive: [4] 98 % of control | [6] 102 % of control

O=C(Nc1cccc(O)c1)C(Cl)=C(Cl)Cl
inactive: endpoint: median survival time, dose: 1.12 mg/kg/injection, schedule: Q01DX005 (ip), vehicle: DMSO 100 % of control | endpoint: median survival time, dose: 1.19 mg/kg/injection, schedule: Q01DX005 (ip), vehicle: DMSO 101 % of control | endpoint: median survival time, dose: 1.87 mg/kg/injection, schedule: Q01DX005 (ip), vehicle: DMSO 100 % of control and 102 % of control | endpoint: median survival time, dose: 3.12 mg/kg/injection, schedule: Q01DX005 (ip), vehicle: DMSO 113 % of control and 98 % of control | endpoint: median survival time, dose: 5.19 mg/kg/injection, schedule: Q01DX005 (ip), vehicle: DMSO 104 % of control | endpoint: median survival time, dose: 5.2 mg/kg/injection, schedule: Q01DX005 (ip), vehicle: DMSO 108 % of control | endpoint: median survival time, dose: 6.25 mg/kg/injection, schedule: Q01DX005 (ip), vehicle: other 120 % of control | endpoint: median survival time, dose: 8.66 mg/kg/injection, schedule: Q01DX005 (ip), vehicle: DMSO 102 % of control | endpoint: median survival time, dose: 8.67 mg/kg/injection, schedule: Q01DX005 (ip), vehicle: DMSO 114 % of control | endpoint: median survival time, dose: 12.5 mg/kg/injection, schedule: Q01DX005 (ip), vehicle: other 118 % of control | endpoint: median survival time, dose: 25.0 mg/kg/injection, schedule: Q01DX005 (ip), vehicle: other 93 % of control
